Measured values reported in PubChem BioAssay (NCI).
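Grown in 96-well plates, cells were treated for 48 hours with each compound at five concentrations. Insufficient inhibition: endpoint recorded as highest concentration tested. TGI: total growth inhibition.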

System: SN12K1 renal
Test: NCI tumour cell line growth inhibition, 48 h

C[C@H](N)C(=O)N[C@@H]1[C@H]2C(=C(O)C[C@@H](O)[C@@H]2O)C(=O)O[C@]1(C)C(Cl)Cl
TGI: 1580 nM
